# Source: patent US20220211678A1, “USES OF (+)-A-DIHYDROTETRABENAZINE IN METHODS OF TREATING MOVEMENT DISORDER” (ADEPTIO PHARMACEUTICALS LIMITED, priority 2017, published 2022)
# Tested on: amphetamine-induced rats
# Assay: Amphetamine-induced locomotor activity and stereotypic behaviour, open field arena (Example 2, Studies 1, 2, 4)
# Type: in vivo, rat
# Settings: for normalised total stereotypic behaviour, compared to vehicle-amphetamine group / total distance travelled, compared to vehicle-amphetamine group: amphetamine at t=30 min; for locomotor activity compared to the vehicle-amphetamine group (conclusion) / stereotypic behaviour compared to the vehicle-amphetamine group (conclusion): risperidone 1 mg/kg
# Source text: Dopaminergic models for Tourette's syndrome use systemic or focal administration of dopamine agonists such as amphetamine. After injection with amphetamine, a test animal expresses stereotypic behaviour. In particular, involvement of a dopaminergic system implicated in Tourette's syndrome wild type mice and rats can be stimulated with amphetamine and the resulting hyperactivity and stereotypies can be reversed with dopamine antagonists such as risperidone and haloperidol (Tourette's syndrome—Animal Models for Screening, Charles River Discovery Research Services, Finland).
# All animal experiments were carried out according to the National Institute of Health (NIH) guidelines for the care and use of laboratory animals, and approved by the National Animal Experiment Board, Finland. Male CD (Charles River Laboratories, Germany) at weight range of 200-250 g (165-200 g upon arrival) were used for the experiments. Animals were housed at a standard temperature (22±1° C.) and in a light-controlled environment (lights on from 7 am to 8 pm) with ad libitum access to food and water.
# Locomotor activity of the rats was tested in open field arena. The open field test was performed during the rat light cycle and under a normal lighting evenly distributed to the test chambers. The paths of the rats were recorded by activity monitor (Med. Associates Inc.).
# Dosing the vehicle, vehicle-amphetamine, (+)-α-DHTBZ or risperidone was done prior to LMA test. The rats were placed in the centre of the arena, and the path was recorded for 60 minutes.
# (§1) Animals were grouped as follows: • Group 1: 10 rats treated with Vehicle (t=0 min) and Vehicle (t=30 min) • Group 2: 10 rats treated with Vehicle (t=0 min) and Amphetamine (t=30 min) • Group 3: 10 rats treated with (+)-α-DHTBZ 0.5 mg/kg (t=0 min) and Amphetamine (t=30 min) • Group 4: 10 rats treated with (+)-α-DHTBZ 1 mg/kg (t=0 min) and Amphetamine (t=30 min) • Group 5: 10 rats treated with (+)-α-DHTBZ 1.5 mg/kg (t=0 min) and Amphetamine (t=30 min) • Group 6: 10 rats treated with (+)-α-DHTBZ 2 mg/kg (t=0 min) and Amphetamine (t=30 min) • Group 7: 10 rats treated with risperidone 1 mg/kg (t=0 min) and Amphetamine (t=30 min)
# (§2) Rats dosed with either vehicle, (+)-α-DHTBZ 0.5 mg/kg, (+)-α-DHTBZ 1 mg/kg, (+)-α-DHTBZ 1.5 mg/kg, (+)-α-DHTBZ 2 mg/kg or Risperidone 1 mg/kg were subjected to LMA testing first for 30 min and then for 60 minutes after vehicle or amphetamine challenge. Resulting locomotor activity was evaluated in 3 min bins and as a total over the testing period.
# as §2, with “stereotypic” for “locomotor”
# Animals were grouped as follows: • Group 1: 10 rats treated with Vehicle (t=0 min) and Vehicle (t=30 min) • Group 2: 10 rats treated with Vehicle (t=0 min) and Amphetamine (t=30 min) • Group 3: 10 rats treated with (+)-α-DHTBZ 0.1 mg/kg (t=0 min) and Amphetamine (t=30 min) • Group 4: 10 rats treated with (+)-α-DHTBZ 0.25 mg/kg (t=0 min) and Amphetamine (t=30 min) • Group 5: 10 rats treated with risperidone 1 mg/kg (t=0 min) and Amphetamine (t=30 min)
# as §1, with “(+)-α-DHTBZ 1” for “(+)-α-DHTBZ 0.5”, “(+)-α-DHTBZ 1.5” for “(+)-α-DHTBZ 1”, “with Valbenazine 1” for “with (+)-α-DHTBZ 1.5”, “with Valbenazine 1.5” for “with (+)-α-DHTBZ 2”
# [1] = Study 1, (+)-α-DHTBZ at all the tested doses (0.5, 1, 1.5, 2 mg/kg)
structure (smiles),measurement,setting,value
"COc1cc2c(cc1OC)[C@H]1C[C@@H](O)[C@H](CC(C)C)CN1CC2 [(+)-α-dihydrotetrabenazine, (R,R,R)-3-isobutyl-9,10-dimethyloxy-1,3,4,5,7,11b-hexahydro-2H-pyrido[2,1-a]isoquinolin-2-ol]","normalised total stereotypic behaviour, compared to vehicle-amphetamine group","Study 1, 0.5 mg/kg",significantly different
same,"normalised total stereotypic behaviour, compared to vehicle-amphetamine group","Study 1, 1 mg/kg",significantly different
same,"normalised total stereotypic behaviour, compared to vehicle-amphetamine group","Study 1, 1.5 mg/kg",significantly different
same,"normalised total stereotypic behaviour, compared to vehicle-amphetamine group","Study 1, 2 mg/kg",significantly different
same,locomotor activity compared to the vehicle-amphetamine group (conclusion),[1],lower locomotor activity
same,stereotypic behaviour compared to the vehicle-amphetamine group (conclusion),[1],reduced stereotypic behaviour
same,"normalised total stereotypic behaviour, compared to vehicle-amphetamine group","Study 2, 0.1 mg/kg",significantly different
same,"normalised total stereotypic behaviour, compared to vehicle-amphetamine group","Study 2, 0.25 mg/kg",significantly different
same,locomotor activity compared to the vehicle-amphetamine group (conclusion),"Study 2, (+)-α-DHTBZ at 0.25 mg/kg",lower locomotor activity
same,stereotypic behaviour compared to the vehicle-amphetamine group (conclusion),"Study 2, (+)-α-DHTBZ at both the tested doses (0.1, 0.25 mg/kg)",reduced stereotypic behaviour
same,locomotor activity compared to the vehicle-amphetamine group and the corresponding dose of Valbenazine (conclusion),"Study 4, 1 mg/kg and 1.5 mg/kg",lower locomotor activity
same,"normalised total stereotypic behaviour, compared to vehicle-amphetamine group","Study 4, 1 mg/kg",significantly different
same,"total distance travelled, compared to vehicle-amphetamine group","Study 4, 1 mg/kg",significantly different
same,"normalised total stereotypic behaviour, compared to vehicle-amphetamine group","Study 4, 1.5 mg/kg",significantly different
same,"total distance travelled, compared to vehicle-amphetamine group","Study 4, 1.5 mg/kg",significantly different
same,stereotypic behaviour compared to the vehicle-amphetamine group and the corresponding dose of Valbenazine (conclusion),"Study 4, both the tested doses (1 mg/kg and 1.5 mg/kg)",reduced stereotypic behaviour
